For three compounds, viscosity results are on record in a compilation of properties of binary mixtures (doi:10.1016/j.molliq.2021.115610).

This series is described as follows: xn = mol fraction of the nth substance listed. As to conditions: 298 K, 101 kPa.

Structures are written as SMILES.

For the compound `O` + CC[NH3+].O=[N+]([O-])[O-], under “x1 = 1”, the viscosity was determined as 0.89 mPa·s.
For the compound `CCCC[NH3+].O=[N+]([O-])[O-]` + O, the viscosity (x2 = 0.112) worked out at 69.8 mPa·s; the viscosity (x2 = 0.2) was determined as 49.5 mPa·s; the viscosity (x2 = 0.397) was 23.17 mPa·s; the viscosity (x2 = 0.494) was 15.53 mPa·s; the viscosity (x2 = 0.596) turned out to be 10.22 mPa·s; the viscosity (x2 = 0.698) was 6.54 mPa·s. This compound also yielded a viscosity (x2 = 0.95) of 1.53 mPa·s.
Regarding `CC[NH3+].O=[N+]([O-])[O-]` + O, the viscosity is, setting by setting: (x2 = 0) 37.5 mPa·s; (x2 = 0.1) 27.33 mPa·s; (x2 = 0.198) 19.84 mPa·s; (x2 = 0.294) 14.51 mPa·s; (x2 = 0.394) 10.37 mPa·s; (x2 = 0.5) 7.16 mPa·s. Further, the viscosity came out at 4.98 mPa·s (x2 = 0.6), 2.27 mPa·s (x2 = 0.799) and 1.47 mPa·s (x2 = 0.9).

The viscosity is the internal friction of a fluid under shear.
